Assay results reported in patent US8460894B2, “Calcium-sensing receptor 2 (CaR2) and methods for using” (ABT Holding Company, priority 2002, dated 2013).
Values joined by “and” are separate entries in the source; they are usually repeats but may differ in a detail not shown here. Equal values may be shown once. “Also recorded” adds a separate entry of the source.

Tests used:
[1] = target: T1, CaR2 (Homo sapiens, UniProt Q5T6X5, P91S); assay: FLIPR intracellular Ca^++ assay in HEK293 clone expressing CaR2 (HEK-167B12-2.1); format: cell-based; settings: for FLIPR response / activation of CaR2 by ligand: initial ligand testing, ligand alone; for effect of Pb on activation of CaR2 by combined OC and Ca^++: OC and Ca^++ pre-incubated with / in the presence of Pb
T1 construct: molecular acquisition of the full-length cDNA led to the identification of the six coding exons; expressed in transfected cells
T1 sequence (Q5T6X5 19-926 P91S): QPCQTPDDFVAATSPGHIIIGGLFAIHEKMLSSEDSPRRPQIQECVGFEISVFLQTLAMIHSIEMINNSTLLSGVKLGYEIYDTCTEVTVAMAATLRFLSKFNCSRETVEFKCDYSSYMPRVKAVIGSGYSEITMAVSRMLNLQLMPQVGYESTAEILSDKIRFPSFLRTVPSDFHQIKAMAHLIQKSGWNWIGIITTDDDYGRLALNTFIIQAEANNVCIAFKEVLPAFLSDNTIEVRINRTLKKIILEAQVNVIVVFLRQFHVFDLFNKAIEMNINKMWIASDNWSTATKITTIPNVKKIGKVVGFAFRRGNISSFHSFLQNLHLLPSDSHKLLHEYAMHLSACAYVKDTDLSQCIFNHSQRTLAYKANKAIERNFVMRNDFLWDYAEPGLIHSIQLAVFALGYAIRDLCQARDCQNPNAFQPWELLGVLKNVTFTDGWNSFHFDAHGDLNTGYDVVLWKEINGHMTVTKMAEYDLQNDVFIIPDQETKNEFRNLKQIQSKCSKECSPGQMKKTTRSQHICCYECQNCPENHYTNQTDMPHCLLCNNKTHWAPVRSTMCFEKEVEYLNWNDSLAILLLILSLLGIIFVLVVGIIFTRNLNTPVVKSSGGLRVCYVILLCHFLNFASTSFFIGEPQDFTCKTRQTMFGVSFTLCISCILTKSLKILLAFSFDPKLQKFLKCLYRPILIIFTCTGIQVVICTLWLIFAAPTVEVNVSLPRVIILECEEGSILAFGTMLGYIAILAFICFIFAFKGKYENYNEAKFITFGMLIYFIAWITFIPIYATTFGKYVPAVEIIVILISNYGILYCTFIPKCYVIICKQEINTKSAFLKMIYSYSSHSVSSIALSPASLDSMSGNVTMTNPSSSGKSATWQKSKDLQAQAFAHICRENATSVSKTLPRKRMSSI
Procedure: To facilitate pharmacological experimentation, CaR2 cDNA was cloned into the mammalian expression vector pcDNA 3.1 (+) Neo with or without a COOH-terminal FLAG epitope. The transgene was introduced into the HEK293 cell line and stable transfectants were identified. These clones were analyzed for CaR2 expression by qPCR and Western blotting to identify those clones that were suitable for ligand identification.
Based on the homology to the characterized goldfish odorant receptor 5.24, initial studies investigated the ability of 18 naturally occurring amino acids to trigger changes of intracellular Ca^++ levels in the transfected cells, as measured with a fluorescent imaging plate reader (FLIPR).
(§1) Intracellular Ca^++ was measured using a fluorometric imaging plate reader (FLIPR) [Molecular Devices]. Cells were seeded at a density of 1×10^5/well (96-well plate) or 1×10^4/well (384-well plate) in collagen coated plates and incubated overnight at 36.9° C. with 5% CO2. Medium was aspirated from the plates and replaced with equal volumes of a no wash calcium dye (Molecular Devices) and modified Hank's buffered saline solution [Ca^2+-free, Mg^2+-free] (140 mM NaCl, 5.4 mM KCl, 0.64 mM KH2PO4, 3 mM NaHCO3, 5.5 mM C6H12O6, 20 mM HEPES, 2.5 mM Caprylic acid (or 2.5 mM probenecid)). The plates were incubated for 1 hour at 36.9° C. with 5% CO2. FLIPR was used to measure changes in intracellular calcium as relative fluorescence upon activation by ligand.

[2] = tested on: parental HEK293 cells; assay: FLIPR intracellular Ca^++ assay in parental HEK293 cells (no CaR2); format: cell-based
Procedure: as §1
(§2) Also, the apical side of cells lining tubules in Henle's loop in kidney and in epithelial cells lining prostate ducts are microenvironments where a higher than standard extracellular Ca^++ can be expected.
(§3) Having shown that high calcium levels activate CaR2, the effects of several agents known to modulate bone metabolism were determined.

[3] = tested on: Saos-2 osteoblasts; assay: Osteoblast survival and proliferation in high mM Ca^++; format: cell-based
Excerpt: Saos-2 osteoblasts (ATCC-HTB-85) express CaR2 as determined by Western Blotting.

[4] = tested on: CaR; settings: CaR in transfected HEK 293 cells; read-out: EC50 for Ca^++ at CaR; cited from earlier work
[5] = tested on: CaR; assay: Activation of CaR in transfected HEK 293 cells; format: cell-based; settings: HEK293 cells that express the previously characterized CaR
Procedure: as §1, §2, §3

## [Ca+2] [Ca^++, calcium]
[1]; 10 mM Ca^++ (FIG. 4)
  CaR2 activation by Ca^++: modest activation
[1]; 40 mM Ca^++ (FIG. 4)
  CaR2 activation by Ca^++: robustly activated
[1]; HEK293 clone expressing CaR2, FLIPR
  EC50: 85 mM
[1]; clone expressing CaR2 (FIG. 2)
  calcium level causing marked increase in fluorescence signal (intracellular Ca^++): > 20 mM
[1]
  FLIPR response / activation of CaR2 by ligand: failed to elicit a positive FLIPR response
[2]; parental cell line, >20 mM calcium
  increase in fluorescence signal by high calcium levels: not observed
[3]; buffer containing 2 mM Ca^++
  growth of Saos-2 cells: grew
[3]; medium containing 10 mM Ca^++
  proliferation and survival of Saos-2 cells: did not proliferate
[3]; medium containing 40 mM Ca^2+
  proliferation and survival of Saos-2 cells: survived and proliferated normally
[4]
  EC50: 4.1 mM and 4 mM

## NCCCC(=O)O [GABA, reference compound]
[1]
  FLIPR response / activation of CaR2 by ligand: failed to elicit a positive FLIPR response

## CN[C@H](CC(=O)O)C(=O)O [NMDA, reference compound]
[1]
  FLIPR response / activation of CaR2 by ligand: failed to elicit a positive FLIPR response

## [Pb+2] [Pb^++, reference compound]
[1]
  effect of Pb on activation of CaR2 by combined OC and Ca^++: blocked
[1]; listed as Pb^2+
  effect of Pb on activation of CaR2 by combined OC and Ca^++: reversed

## OC: vitamin K-dependent bone calcium binding protein, 49 amino acids, synthesized by osteoblasts (YLYQWLGAPVPYPDPLEPRREVCELNPDCDELADHIGFQEAYRRFYGPV; UniProt P02818 52-100, looked up)
[1]; OC and calcium added separately, not pre-incubated
  synergistic effect of OC and calcium on CaR2: not when both ligands are added separately
[1]; OC pre-incubated with calcium
  effect of OC on activation of CaR2 by Ca^++: CaR2 was activated at lower calcium levels and the activation by high mM calcium was potentiated; also recorded: dose-dependent effect; also recorded: activates CaR2 when pre-incubated with 10 mM Ca^++ in a dose-dependent manner; also recorded: increases the sensitivity of CaR2 to Ca^++
[1]; in the absence of calcium
  activation of CaR2 by OC: does not activate CaR2
[5]
  effect of OC and Ca^++: not observed
[2]; parental HEK293 cells that do not express CaR2
  effect of OC and Ca^++: not observed

## calcitonin [CT]
[1]; either ligand (BMP-2 or CT) added alone, absence of calcium
  intracellular Ca^++ in the CaR2 clone: not seen
